Source: patent US20100105655A1, “NOVEL COMPOUNDS 515” (ASTRAZENECA AB, priority 2008, published 2010)

Molecular target: T1, IGFR kinase (Homo sapiens, UniProt P08069)
T1 construct: purchased Millipore
Assay: Enzyme assay (c), IGFR kinase, Caliper LabChip
Assay type: biochemical
Conditions: 30 nM IGFR kinase, 6 uM ATP, 3 uM peptide mix; read-out: IGFR IC50
Procedure: For Echo dosing the solvent was 100% DMSO. A master plate was prepared with 40 ul of 10 mM stock solution of the test compound in DMSO in quadrant 1 of a Labcyte 384 well plate. A 1 in 100 dilution was made from quadrant 1 into quadrant 2 by removing 0.4 ul and adding it to 39.6 ul of DMSO. Subsequent 1 in 100 dilutions were made into quadrant 3 from quadrant 2 and quadrant 4 from quadrant 3.
Multiple 2.5 nl droplets were dispensed from each quadrant of the master plate to generate the dose range that was required in the test. The dose range most commonly used was as follows: 100 uM, 30 uM, 10 uM, 3 uM, 1 uM, 0.3 uM, 0.1 uM, 0.03 uM, 0.01 uM, 0.003 uM, 0.001 uM, 0.0001 uM. Each well was backfilled with dimethyl sulfoxide (DMSO) to a total volume of 120 nl, such that when the enzyme and substrate mix was added the final DMSO concentration was 1%.
DMSO was added to max control wells as 120 nl, minimum control wells were treated with 120 nl of compound at a concentration that inhibited the enzyme activity 100%.
Integration of the substrate and product peaks was carried out using Caliper LabChip software and IC50 curves were calculated using Origin™ software.

T1 sequence (P08069 31-1367): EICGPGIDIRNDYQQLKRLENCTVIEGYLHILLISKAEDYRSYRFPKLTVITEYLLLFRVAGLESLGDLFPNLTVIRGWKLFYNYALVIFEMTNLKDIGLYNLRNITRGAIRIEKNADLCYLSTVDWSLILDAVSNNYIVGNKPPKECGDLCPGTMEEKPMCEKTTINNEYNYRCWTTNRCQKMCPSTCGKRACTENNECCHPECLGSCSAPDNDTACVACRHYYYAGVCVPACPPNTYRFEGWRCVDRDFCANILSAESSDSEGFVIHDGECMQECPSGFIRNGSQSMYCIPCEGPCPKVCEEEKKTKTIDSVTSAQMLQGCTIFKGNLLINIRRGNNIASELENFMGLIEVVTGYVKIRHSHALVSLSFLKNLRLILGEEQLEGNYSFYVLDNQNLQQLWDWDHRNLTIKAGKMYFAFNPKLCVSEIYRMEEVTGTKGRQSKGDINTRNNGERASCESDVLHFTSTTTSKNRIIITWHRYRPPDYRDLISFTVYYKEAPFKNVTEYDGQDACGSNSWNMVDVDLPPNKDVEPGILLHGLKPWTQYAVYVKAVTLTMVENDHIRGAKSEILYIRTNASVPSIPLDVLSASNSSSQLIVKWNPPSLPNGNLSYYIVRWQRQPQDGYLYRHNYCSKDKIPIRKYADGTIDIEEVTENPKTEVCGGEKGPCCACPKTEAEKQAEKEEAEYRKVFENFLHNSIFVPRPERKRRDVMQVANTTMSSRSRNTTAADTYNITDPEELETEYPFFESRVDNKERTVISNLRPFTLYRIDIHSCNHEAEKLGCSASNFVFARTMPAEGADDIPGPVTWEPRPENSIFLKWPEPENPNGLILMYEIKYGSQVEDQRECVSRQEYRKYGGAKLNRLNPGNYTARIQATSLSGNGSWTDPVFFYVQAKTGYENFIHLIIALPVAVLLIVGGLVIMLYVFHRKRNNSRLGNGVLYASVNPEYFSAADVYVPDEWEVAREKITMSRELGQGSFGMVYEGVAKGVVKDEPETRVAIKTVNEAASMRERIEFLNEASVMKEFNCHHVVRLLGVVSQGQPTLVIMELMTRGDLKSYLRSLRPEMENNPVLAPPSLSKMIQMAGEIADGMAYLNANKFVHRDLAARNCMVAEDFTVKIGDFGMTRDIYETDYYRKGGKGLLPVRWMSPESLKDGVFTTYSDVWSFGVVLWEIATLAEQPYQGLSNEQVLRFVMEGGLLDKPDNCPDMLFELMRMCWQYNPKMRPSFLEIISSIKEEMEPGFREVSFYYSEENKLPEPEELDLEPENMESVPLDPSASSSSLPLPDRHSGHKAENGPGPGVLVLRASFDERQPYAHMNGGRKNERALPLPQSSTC

Row | Compound | IC50 [nM]
1 | COc1cc(C2CCN(C(=O)N(C)CCO)CC2)ccc1Nc1ncc(Cl)c(-c2cnc3ccccn23)n1 [Example 58, 4-[4-[(5-chloro-4-imidazo[1,2-a]pyridin-3-yl-pyrimidin-2-yl)amino]-3-methoxy-phenyl]-N-(2-hydroxyethyl)-N-methyl-piperidine-1-carboxamide] | 6
2 | COc1cc(C2CCNCC2)ccc1Nc1ncc(F)c(-c2cnn3ccccc23)n1 [Example 173, 5-fluoro-N-[2-methoxy-4-(4-piperidyl)phenyl]-4-pyrazolo[1,5-a]pyridin-3-yl-pyrimidin-2-amine] | 10
3 | COc1cc(N2CC3CN(C(=O)CN(C)C)CC(C2)O3)ccc1Nc1ncc(Cl)c(-c2cnc3c(F)cccn23)n1 [Example 211, 1-[3-[4-[[5-chloro-4-(8-fluoroimidazo[1,2-a]pyridin-3-yl)pyrimidin-2-yl]amino]-3-methoxy-phenyl]-9-oxa-3,7-diazabicyclo[3.3.1]nonan-7-yl]-2-(dimethylamino)ethanone] | 19
4 | COc1cc(C(C)C(=O)N2CCN(CCO)CC2)ccc1Nc1ncc(Cl)c(-c2cnc3ccccn23)n1 (stereo not drawn) [Example 3.41, 2-[4-[(5-chloro-4-imidazo[1,2-a]pyridin-3-yl-pyrimidin-2-yl)amino]-3-methoxy-phenyl]-1-[4-(2-hydroxyethyl)piperazin-1-yl]propan-1-one] | 16
5 | COc1cc(CN2CC[C@@H](O)C2)ccc1Nc1ncc(Cl)c(-c2cnc3ccccn23)n1 [Example 21.18, (3R)-1-[[4-[(5-chloro-4-imidazo[1,2-a]pyridin-3-yl-pyrimidin-2-yl)amino]-3-methoxy-phenyl]methyl]pyrrolidin-3-ol] | 17
6 | COc1cc(N2CCN(C(C)=O)CC2)ccc1Nc1ncc(C(F)(F)F)c(-c2cnc3ccccn23)n1 [Example 107, 1-[4-[4-[[4-imidazo[1,2-a]pyridin-3-yl-5-(trifluoromethyl)pyrimidin-2-yl]amino]-3-methoxy-phenyl]piperazin-1-yl]ethanone] | 15
7 | COc1cc(OC2CCN(C(C)=O)CC2)ccc1Nc1ncc(C(F)(F)F)c(-c2cnc3ccccn23)n1 [Example 110, 1-[4-[4-[[4-imidazo[1,2-a]pyridin-3-yl-5-(trifluoromethyl)pyrimidin-2-yl]amino]-3-methoxy-phenoxy]-1-piperidyl]ethanone] | 36
8 | COc1cc(N2CCN(C(C)=O)CC2)ccc1Nc1ncc(Cl)c(-c2cnc3cc(CN(C)C)ccn23)n1 [Example 185, 1-[4-[4-[[5-chloro-4-[7-(dimethylaminomethyl)imidazo[1,2-a]pyridin-3-yl]pyrimidin-2-yl]amino]-3-methoxy-phenyl]piperazin-1-yl]ethanone] | 170
9 | COc1cc(CN2CCC[C@H](O)C2)ccc1Nc1ncc(Cl)c(-c2cnc3ccccn23)n1 [Example 21.17, (3S)-1-[[4-[(5-chloro-4-imidazo[1,2-a]pyridin-3-yl-pyrimidin-2-yl)amino]-3-methoxy-phenyl]methyl]piperidin-3-ol] | 28
10 | COCCN(C)Cc1ccc(Nc2ncc(Cl)c(-c3cnc4ccccn34)n2)c(OC)c1 [Example 21.13, 5-chloro-4-imidazo[1,2-a]pyridin-3-yl-N-[2-methoxy-4-[(2-methoxyethyl-methyl-amino)methyl]phenyl]pyrimidin-2-amine] | 32
11 | COc1cc(O[C@@H]2CCN(C(=O)C(C)O)C2)ccc1Nc1ncc(Cl)c(-c2cnc3ccccn23)n1 (mixture of isomers) [Example 12, 1-[(3R)-3-[4-[(5-chloro-4-imidazo[1,2-a]pyridin-3-yl-pyrimidin-2-yl)amino]-3-methoxy-phenoxy]pyrrolidin-1-yl]-2-hydroxy-propan-1-one] | 22
12 | COc1cc(N2CCOCC2)ccc1Nc1ncc(F)c(-c2cnc3ccccn23)n1 [Example 79, 5-fluoro-4-imidazo[1,2-a]pyridin-3-yl-N-(2-methoxy-4-morpholino-phenyl)pyrimidin-2-amine] | 56
